Blank lines part the entries; values can stand above or below the compound they belong to.
Key:
Assay in all cases: Caliper, Mobility shift assay off-chip
CDK7 CCNH MNAT1 (human) = CDK7 CCNH MNAT1 (human) (UniProt P50613+P51948+P51946)
CSNK1G3 (human) = CSNK1G3 (human) (UniProt Q9Y6M4)
JAK3 JH1 JH2 (human) = JAK3 JH1 JH2 (human) (UniProt P52333)
EPHB2 (human) = EPHB2 (human) (UniProt P29323)
RPS6KA4 KD1 KD2 (human) = RPS6KA4 KD1 KD2 (human) (UniProt O75676)
FGFR4 (human) = FGFR4 (human) (UniProt P22455)
PDPK1 (human) = PDPK1 (human) (UniProt O15530)
IRAK1 (human) = IRAK1 (human) (UniProt P51617)
NTRK1 (human) = NTRK1 (human) (UniProt P04629)
FGR (human) = FGR (human) (UniProt P09769)
WNK2 (human) = WNK2 (human) (UniProt Q9Y3S1)
CSNK1D (human) = CSNK1D (human) (UniProt P48730)
FLT1 (human) = FLT1 (human) (UniProt P17948)
INSR (human) = INSR (human) (UniProt P06213)
[1] = test system: MAPK14 (human), Q16539 [T106M]
PTK2B (human) = PTK2B (human) (UniProt Q14289)
CDK3 CCNE1 (human) = CDK3 CCNE1 (human) (UniProt P24864+Q00526)
TAOK3 (human) = TAOK3 (human) (UniProt Q9H2K8)
EPHB4 (human) = EPHB4 (human) (UniProt P54760)
WNK3 (human) = WNK3 (human) (UniProt Q9BYP7)
PRKACA (human) = PRKACA (human) (UniProt P17612)
NEK7 (human) = NEK7 (human) (UniProt Q8TDX7)
DAPK2 (human) = DAPK2 (human) (UniProt Q9UIK4)
PHKG2 (human) = PHKG2 (human) (UniProt P15735)
FRK (human) = FRK (human) (UniProt P42685)
PRKCB2 (human) = PRKCB2 (human) (UniProt P05771)
RPS6KA3 KD1 KD2 (human) = RPS6KA3 KD1 KD2 (human) (UniProt P51812)
[2] = test system: KIT (human), P10721 [V560G]
LYN (human) = LYN (human) (UniProt P07948)
CAMK1D (human) = CAMK1D (human) (UniProt Q8IU85)
NLK (human) = NLK (human) (UniProt Q9UBE8)
CLK3 (human) = CLK3 (human) (UniProt P49761)
NEK3 (human) = NEK3 (human) (UniProt P51956)
NEK11 (human) = NEK11 (human) (UniProt Q8NG66)
[3] = test system: KIT (human), P10721 [V654A]
PTK2 (human) = PTK2 (human) (UniProt Q05397)
PAK6 (human) = PAK6 (human) (UniProt Q9NQU5)
FER (human) = FER (human) (UniProt P16591)
PDGFRB (human) = PDGFRB (human) (UniProt P09619)
PRKD1 (human) = PRKD1 (human) (UniProt Q15139)
TAOK2 (human) = TAOK2 (human) (UniProt Q9UL54)

Chain of FER (human) (P16591 whole entry, looked up): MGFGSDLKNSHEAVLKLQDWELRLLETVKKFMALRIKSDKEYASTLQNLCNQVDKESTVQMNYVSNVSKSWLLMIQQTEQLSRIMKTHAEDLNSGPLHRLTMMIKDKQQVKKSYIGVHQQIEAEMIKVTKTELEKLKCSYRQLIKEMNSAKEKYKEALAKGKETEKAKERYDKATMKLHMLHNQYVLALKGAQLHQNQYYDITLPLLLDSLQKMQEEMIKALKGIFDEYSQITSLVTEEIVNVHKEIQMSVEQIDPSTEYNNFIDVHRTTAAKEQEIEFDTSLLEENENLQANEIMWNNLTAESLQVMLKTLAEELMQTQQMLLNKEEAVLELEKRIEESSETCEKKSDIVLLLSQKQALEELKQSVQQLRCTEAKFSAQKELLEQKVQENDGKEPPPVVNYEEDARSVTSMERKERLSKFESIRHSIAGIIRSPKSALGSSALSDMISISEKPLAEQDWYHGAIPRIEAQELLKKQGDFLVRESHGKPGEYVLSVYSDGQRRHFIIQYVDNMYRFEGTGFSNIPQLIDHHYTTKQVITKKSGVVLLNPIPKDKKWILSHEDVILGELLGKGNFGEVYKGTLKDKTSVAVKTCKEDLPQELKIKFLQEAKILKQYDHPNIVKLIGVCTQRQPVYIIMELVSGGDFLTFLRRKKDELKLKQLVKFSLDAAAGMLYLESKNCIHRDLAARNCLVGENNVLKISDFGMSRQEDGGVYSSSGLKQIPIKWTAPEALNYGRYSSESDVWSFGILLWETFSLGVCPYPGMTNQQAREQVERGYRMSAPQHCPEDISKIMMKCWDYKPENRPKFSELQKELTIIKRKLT
Chain of FGFR4 (human) (P22455 whole entry, looked up): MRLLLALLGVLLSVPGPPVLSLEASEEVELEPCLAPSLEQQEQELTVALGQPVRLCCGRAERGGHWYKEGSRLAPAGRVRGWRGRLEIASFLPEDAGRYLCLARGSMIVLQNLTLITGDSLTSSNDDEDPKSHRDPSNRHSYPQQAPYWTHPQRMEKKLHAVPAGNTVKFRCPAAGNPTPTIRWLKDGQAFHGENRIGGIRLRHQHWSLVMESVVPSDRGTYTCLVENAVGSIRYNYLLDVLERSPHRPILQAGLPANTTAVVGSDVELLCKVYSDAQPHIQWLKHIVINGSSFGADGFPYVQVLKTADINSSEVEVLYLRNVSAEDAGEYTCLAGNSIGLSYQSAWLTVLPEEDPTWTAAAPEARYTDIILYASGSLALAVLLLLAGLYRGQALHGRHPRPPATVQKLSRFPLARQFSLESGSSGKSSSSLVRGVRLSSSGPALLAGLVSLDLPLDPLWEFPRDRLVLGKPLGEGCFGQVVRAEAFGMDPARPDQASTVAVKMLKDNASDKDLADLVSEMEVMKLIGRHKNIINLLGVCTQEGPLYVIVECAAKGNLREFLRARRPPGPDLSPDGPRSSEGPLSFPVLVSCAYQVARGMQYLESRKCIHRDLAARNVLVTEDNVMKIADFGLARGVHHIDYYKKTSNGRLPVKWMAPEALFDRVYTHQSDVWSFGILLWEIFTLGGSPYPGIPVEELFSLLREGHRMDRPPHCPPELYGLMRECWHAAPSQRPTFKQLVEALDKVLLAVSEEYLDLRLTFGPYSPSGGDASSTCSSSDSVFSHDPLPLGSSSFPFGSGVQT
Chain of EPHB2 (human) (P29323 whole entry, looked up): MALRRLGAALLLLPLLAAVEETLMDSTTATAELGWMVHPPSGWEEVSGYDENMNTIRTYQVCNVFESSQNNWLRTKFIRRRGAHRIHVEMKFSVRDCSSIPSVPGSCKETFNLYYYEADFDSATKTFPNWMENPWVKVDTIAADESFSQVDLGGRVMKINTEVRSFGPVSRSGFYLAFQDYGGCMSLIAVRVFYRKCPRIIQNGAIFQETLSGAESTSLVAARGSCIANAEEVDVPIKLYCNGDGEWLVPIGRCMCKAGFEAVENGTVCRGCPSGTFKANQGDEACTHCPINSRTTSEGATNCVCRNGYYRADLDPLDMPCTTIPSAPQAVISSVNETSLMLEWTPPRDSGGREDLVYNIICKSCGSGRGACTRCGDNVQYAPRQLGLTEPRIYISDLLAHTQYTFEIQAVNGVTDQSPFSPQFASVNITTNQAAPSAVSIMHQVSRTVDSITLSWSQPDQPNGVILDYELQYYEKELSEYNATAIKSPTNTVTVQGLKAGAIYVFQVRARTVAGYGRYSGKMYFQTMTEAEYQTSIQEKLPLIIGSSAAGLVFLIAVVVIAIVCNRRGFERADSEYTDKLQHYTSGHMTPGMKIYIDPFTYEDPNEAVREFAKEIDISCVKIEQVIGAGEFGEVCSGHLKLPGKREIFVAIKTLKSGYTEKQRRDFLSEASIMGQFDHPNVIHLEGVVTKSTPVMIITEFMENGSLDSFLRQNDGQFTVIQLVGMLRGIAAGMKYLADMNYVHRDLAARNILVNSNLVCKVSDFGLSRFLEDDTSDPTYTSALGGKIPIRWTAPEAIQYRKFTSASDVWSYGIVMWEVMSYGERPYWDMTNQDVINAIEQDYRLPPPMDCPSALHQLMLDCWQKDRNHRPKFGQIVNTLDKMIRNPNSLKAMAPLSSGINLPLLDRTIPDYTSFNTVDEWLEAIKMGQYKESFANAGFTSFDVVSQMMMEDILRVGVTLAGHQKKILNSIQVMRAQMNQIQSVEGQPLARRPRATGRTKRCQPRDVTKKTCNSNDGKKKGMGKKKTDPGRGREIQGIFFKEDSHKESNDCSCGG
Chain of PAK6 (human) (Q9NQU5 whole entry, looked up): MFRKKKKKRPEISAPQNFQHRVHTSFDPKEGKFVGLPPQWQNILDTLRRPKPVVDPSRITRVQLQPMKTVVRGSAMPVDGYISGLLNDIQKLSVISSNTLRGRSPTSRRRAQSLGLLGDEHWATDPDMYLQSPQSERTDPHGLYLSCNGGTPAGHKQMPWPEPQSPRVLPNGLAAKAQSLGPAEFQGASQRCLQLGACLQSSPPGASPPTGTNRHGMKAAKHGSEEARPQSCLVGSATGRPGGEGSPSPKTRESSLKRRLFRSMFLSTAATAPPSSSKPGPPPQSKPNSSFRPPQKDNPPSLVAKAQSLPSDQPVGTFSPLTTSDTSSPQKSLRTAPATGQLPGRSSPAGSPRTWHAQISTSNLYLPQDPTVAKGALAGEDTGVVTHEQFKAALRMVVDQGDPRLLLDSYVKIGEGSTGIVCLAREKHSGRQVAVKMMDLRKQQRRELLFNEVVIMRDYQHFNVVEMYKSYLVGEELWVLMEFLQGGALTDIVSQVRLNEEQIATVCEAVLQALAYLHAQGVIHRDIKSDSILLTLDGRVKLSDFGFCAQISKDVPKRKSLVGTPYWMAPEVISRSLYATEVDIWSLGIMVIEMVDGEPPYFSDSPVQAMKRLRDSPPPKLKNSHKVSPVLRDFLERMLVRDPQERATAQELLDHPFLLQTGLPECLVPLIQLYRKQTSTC
Chain of DAPK2 (human) (Q9UIK4 whole entry, looked up): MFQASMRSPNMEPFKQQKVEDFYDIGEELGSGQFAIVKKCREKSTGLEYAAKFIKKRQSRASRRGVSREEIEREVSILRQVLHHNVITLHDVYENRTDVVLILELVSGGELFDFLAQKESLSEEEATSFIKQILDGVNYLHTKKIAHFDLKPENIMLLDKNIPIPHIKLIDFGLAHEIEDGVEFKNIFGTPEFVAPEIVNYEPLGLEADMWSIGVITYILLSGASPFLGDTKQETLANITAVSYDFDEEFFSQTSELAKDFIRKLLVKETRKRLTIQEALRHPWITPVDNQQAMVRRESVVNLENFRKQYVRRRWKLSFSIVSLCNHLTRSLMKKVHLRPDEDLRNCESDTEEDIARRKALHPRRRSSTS
Chain of JAK3 JH1 JH2 (human) (P52333 whole entry, looked up): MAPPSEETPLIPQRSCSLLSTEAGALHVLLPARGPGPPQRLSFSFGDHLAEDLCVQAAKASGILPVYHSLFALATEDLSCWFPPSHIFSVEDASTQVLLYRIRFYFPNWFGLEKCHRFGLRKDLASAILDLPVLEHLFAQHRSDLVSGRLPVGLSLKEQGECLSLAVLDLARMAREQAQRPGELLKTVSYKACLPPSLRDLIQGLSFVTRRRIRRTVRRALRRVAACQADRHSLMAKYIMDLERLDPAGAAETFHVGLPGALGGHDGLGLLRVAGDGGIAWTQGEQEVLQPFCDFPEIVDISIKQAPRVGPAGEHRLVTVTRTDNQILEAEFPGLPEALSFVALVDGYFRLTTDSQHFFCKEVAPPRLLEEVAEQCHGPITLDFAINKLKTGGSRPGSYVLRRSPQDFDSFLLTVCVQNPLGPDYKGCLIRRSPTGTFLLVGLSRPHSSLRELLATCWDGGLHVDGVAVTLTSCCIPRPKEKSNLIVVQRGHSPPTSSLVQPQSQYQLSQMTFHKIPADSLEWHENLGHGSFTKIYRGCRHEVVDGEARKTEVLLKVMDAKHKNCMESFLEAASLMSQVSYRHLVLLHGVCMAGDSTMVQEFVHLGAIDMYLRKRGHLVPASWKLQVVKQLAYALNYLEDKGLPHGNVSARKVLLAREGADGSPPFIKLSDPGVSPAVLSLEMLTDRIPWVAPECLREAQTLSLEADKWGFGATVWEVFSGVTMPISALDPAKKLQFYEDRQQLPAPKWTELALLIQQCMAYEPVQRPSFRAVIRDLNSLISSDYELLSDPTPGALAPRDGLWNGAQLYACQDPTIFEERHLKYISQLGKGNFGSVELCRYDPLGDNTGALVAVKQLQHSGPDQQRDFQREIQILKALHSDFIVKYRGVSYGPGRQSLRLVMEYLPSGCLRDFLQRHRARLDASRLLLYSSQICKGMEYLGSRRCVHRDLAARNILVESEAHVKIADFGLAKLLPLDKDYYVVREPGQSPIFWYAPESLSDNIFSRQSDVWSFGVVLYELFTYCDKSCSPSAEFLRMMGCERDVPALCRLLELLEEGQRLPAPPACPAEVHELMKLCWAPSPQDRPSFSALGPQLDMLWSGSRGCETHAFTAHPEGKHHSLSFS

residual activity (CDK7 CCNH MNAT1 (human); compound 10.0 µM): 73%
residual activity (CSNK1G3 (human); compound 10.0 µM): 2%
residual activity (JAK3 JH1 JH2 (human); compound 10.0 µM): 55%
residual activity (EPHB2 (human); compound 10.0 µM): 99%
residual activity (RPS6KA4 KD1 KD2 (human); compound 10.0 µM): 8%
residual activity (FGFR4 (human); compound 10.0 µM): 44%
residual activity (PDPK1 (human); compound 10.0 µM): 43%
residual activity (IRAK1 (human); compound 10.0 µM): 58%
residual activity (NTRK1 (human); compound 10.0 µM): 4%
residual activity (FGR (human); compound 10.0 µM): 36%
residual activity (WNK2 (human); compound 10.0 µM): 65%
residual activity (CSNK1D (human); compound 10.0 µM): 35%
residual activity (FLT1 (human); compound 10.0 µM): 6%
residual activity (INSR (human); compound 10.0 µM): 95%
residual activity ([1]; compound 10.0 µM): 79%
residual activity (PTK2B (human); compound 10.0 µM): 47%
residual activity (CDK3 CCNE1 (human); compound 10.0 µM): 84%
residual activity (TAOK3 (human); compound 10.0 µM): 66%
residual activity (EPHB4 (human); compound 10.0 µM): 83%
residual activity (WNK3 (human); compound 10.0 µM): 104%
residual activity (PRKACA (human); compound 10.0 µM): 51%
residual activity (NEK7 (human); compound 10.0 µM): 121%
residual activity (DAPK2 (human); compound 10.0 µM): 85%
residual activity (PHKG2 (human); compound 10.0 µM): 33%
residual activity (FRK (human); compound 10.0 µM): 90%
residual activity (PRKCB2 (human); compound 10.0 µM): 118%
residual activity (RPS6KA3 KD1 KD2 (human); compound 10.0 µM): 24%
residual activity ([2]; compound 10.0 µM): 18%
residual activity (LYN (human); compound 10.0 µM): 56%
residual activity (CAMK1D (human); compound 10.0 µM): 47%
residual activity (NLK (human); compound 10.0 µM): 78%
residual activity (CLK3 (human); compound 10.0 µM): 65%
residual activity (NEK3 (human); compound 10.0 µM): 88%
residual activity (NEK11 (human); compound 10.0 µM): 51%
residual activity ([3]; compound 10.0 µM): 34%
residual activity (PTK2 (human); compound 10.0 µM): 76%
residual activity (PAK6 (human); compound 10.0 µM): 112%
residual activity (FER (human); compound 10.0 µM): 14%
residual activity (PDGFRB (human); compound 10.0 µM): 77%
residual activity (PRKD1 (human); compound 10.0 µM): 32%
residual activity (TAOK2 (human); compound 10.0 µM): 81%
Compound: COc1ccc(C#Cc2ccc3ncc4ncn(-c5ccc(CCN)cc5)c4c3c2)cc1

residual activity (CDK7 CCNH MNAT1 (human); compound 1.0 µM): 102%
residual activity (CSNK1G3 (human); compound 1.0 µM): 113%
residual activity (JAK3 JH1 JH2 (human); compound 1.0 µM): 56%
residual activity (EPHB2 (human); compound 1.0 µM): 92%
residual activity (RPS6KA4 KD1 KD2 (human); compound 1.0 µM): 61%
residual activity (FGFR4 (human); compound 1.0 µM): 105%
residual activity (PDPK1 (human); compound 1.0 µM): 2%
residual activity (IRAK1 (human); compound 1.0 µM): 102%
residual activity (NTRK1 (human); compound 1.0 µM): 10%
residual activity (FGR (human); compound 1.0 µM): 57%
residual activity (WNK2 (human); compound 1.0 µM): 98%
residual activity (CSNK1D (human); compound 1.0 µM): 105%
residual activity (FLT1 (human); compound 1.0 µM): 28%
residual activity (INSR (human); compound 1.0 µM): 107%
residual activity ([1]; compound 1.0 µM): 103%
residual activity (PTK2B (human); compound 1.0 µM): 59%
residual activity (CDK3 CCNE1 (human); compound 1.0 µM): 106%
residual activity (TAOK3 (human); compound 1.0 µM): 104%
residual activity (EPHB4 (human); compound 1.0 µM): 137%
residual activity (WNK3 (human); compound 1.0 µM): 73%
residual activity (PRKACA (human); compound 1.0 µM): 106%
residual activity (NEK7 (human); compound 1.0 µM): 111%
residual activity (DAPK2 (human); compound 1.0 µM): 36%
residual activity (PHKG2 (human); compound 1.0 µM): 76%
residual activity (FRK (human); compound 1.0 µM): 92%
residual activity (PRKCB2 (human); compound 1.0 µM): 105%
residual activity (RPS6KA3 KD1 KD2 (human); compound 1.0 µM): 5%
residual activity ([2]; compound 1.0 µM): 9%
residual activity (LYN (human); compound 1.0 µM): 72%
residual activity (CAMK1D (human); compound 1.0 µM): 55%
residual activity (NLK (human); compound 1.0 µM): 85%
residual activity (CLK3 (human); compound 1.0 µM): 108%
residual activity (NEK3 (human); compound 1.0 µM): 104%
residual activity (NEK11 (human); compound 1.0 µM): 116%
residual activity ([3]; compound 1.0 µM): 46%
residual activity (PTK2 (human); compound 1.0 µM): 75%
residual activity (PAK6 (human); compound 1.0 µM): 103%
residual activity (FER (human); compound 1.0 µM): 6%
residual activity (PDGFRB (human); compound 1.0 µM): 102%
residual activity (PRKD1 (human); compound 1.0 µM): 86%
residual activity (TAOK2 (human); compound 1.0 µM): 101%
Compound: C[C@@H](Nc1nc2c(C#CC3CC3)c[nH]c(=O)c2c2cc(-c3cn[nH]c3)ccc12)C(C)(C)C

residual activity (CDK7 CCNH MNAT1 (human); compound 1.0 µM): 55%
residual activity (JAK3 JH1 JH2 (human); compound 1.0 µM): 100%
residual activity (EPHB2 (human); compound 1.0 µM): 239%
residual activity (RPS6KA4 KD1 KD2 (human); compound 1.0 µM): 43%
residual activity (FGFR4 (human); compound 1.0 µM): 99%
residual activity (PDPK1 (human); compound 1.0 µM): 3%
residual activity (NTRK1 (human); compound 1.0 µM): 46%
residual activity (FGR (human); compound 1.0 µM): 71%
residual activity (FLT1 (human); compound 1.0 µM): 86%
residual activity (INSR (human); compound 1.0 µM): 103%
residual activity (PTK2B (human); compound 1.0 µM): 21%
residual activity (CDK3 CCNE1 (human); compound 1.0 µM): 96%
residual activity (EPHB4 (human); compound 1.0 µM): 84%
residual activity (WNK3 (human); compound 1.0 µM): 111%
residual activity (PRKACA (human); compound 1.0 µM): 74%
residual activity (NEK7 (human); compound 1.0 µM): 105%
residual activity (DAPK2 (human); compound 1.0 µM): 90%
residual activity (RPS6KA3 KD1 KD2 (human); compound 1.0 µM): 2%
residual activity (LYN (human); compound 1.0 µM): 99%
residual activity (PAK6 (human); compound 1.0 µM): 31%
residual activity (FER (human); compound 1.0 µM): 104%
residual activity (PDGFRB (human); compound 1.0 µM): 108%
residual activity (PRKD1 (human); compound 1.0 µM): 20%
Compound: Cc1n[nH]c2c1c(=O)n(CCCN)c1ccc(Cl)cc21
